The values below come from ChEMBL document CHEMBL1145623, “Structure-activity relationships of anthranilamide-based factor Xa inhibitors containing piperidinone and pyridinone P4 moieties” (Bioorg Med Chem Lett, 2008).

Data set [1] in a line: Solubility in potassium phosphate buffer at pH 6.5 by thermodynamic equilibrium aqueous solubility assay. Format: physicochemical.
Data set [2] concerns Canis familiaris. In words: Clearance in dog at 0.02 to 0.5 mg/kg, iv and po. Format: ADME, organism-based, Canis lupus familiaris. Set-up: dose 0.02-0.5 mg/kg, route oral. The note with it: in vivo.
Data set [3] is described as follows: Half life in dog at 0.02 to 0.5 mg/kg, po. To be noted: in vivo. The arrangement: dose 0.02-0.5 mg/kg, route oral. Format: ADME, organism-based, Canis lupus familiaris.
The subject of data set [4] is Canis familiaris. Put plainly: Volume of distribution at steady state in dog at 0.02 to 0.5 mg/kg, iv and po. Format: ADME, organism-based, Canis lupus familiaris. To be noted: in vivo. The arrangement: dose 0.02-0.5 mg/kg, route oral.
Data set [5] can be described thus: Bioavailability in dog at 0.02 to 0.5 mg/kg, po. The note with it: in vivo. It counts as ADME, organism-based, Canis lupus familiaris.

≈ marks a conversion by molar mass, not a printed value.

A word on the solubility (thermodynamic): it is solubility found after equilibrating the solid with the medium. Usually half-life stands for how long it takes for the measured level to halve. What is called bioavailability is the share of a dose that reaches the circulation, judged against a reference dose that is usually intravenous. Read a low bioavailability as poor availability.

With `COc1cc(Cl)cc(C(=O)Nc2ccc(Cl)cn2)c1NC(=O)c1ccc(N2CCCCC2=O)cc1`, in data set [1], the solubility (thermodynamic) came out at 19 µg/mL (≈ 37 µM). Further, the CL in the data set on Canis familiaris [2] turned out to be 12 mL/min/kg. The same compound gave a half-life in data set [3] of 1.5 h. The same compound displayed a Vdss in the data set on Canis familiaris [4] of 1.3 L/kg. The bioavailability in data set [5] worked out at 44%.
`COc1cc(Cl)cc(C(=O)Nc2ccc(Cl)cn2)c1NC(=O)c1ccc(-n2ccccc2=O)cc1F` had a CL in the data set with Canis familiaris [2] of 13 mL/min/kg. In data set [3], this compound showed a half-life of 0.7 h. Also, in the data set on Canis familiaris [4], the Vdss was 2.6 L/kg. Moreover, the bioavailability in data set [5] came to 18%.
As for `COc1cc(Cl)cc(C(=O)Nc2ccc(Cl)cn2)c1NC(=O)c1ccc(-n2ccccc2=O)nc1`, in the data set on Canis familiaris [2], the CL was 5 mL/min/kg. This compound had a half-life in data set [3] of 1.6 h. The Vdss in the data set on Canis familiaris [4] stood at 0.81 L/kg. Also, the bioavailability in data set [5] is 74%.
For `COc1ccc(-n2nc(C(N)=O)c3c2C(=O)N(c2ccc(N4CCCCC4=O)cc2)CC3)cc1` [APIXABAN], the CL in the data set with Canis familiaris [2] was 0.33 mL/min/kg. For the same compound, in data set [3], the half-life was 5.8 h. Also, in the data set on Canis familiaris [4], the Vdss was 0.2 L/kg.
Compound `CN(C)CCOc1cc(Cl)cc(C(=O)Nc2ccc(Cl)cn2)c1NC(=O)c1ccc(N2CCCCC2=O)cc1` displayed a solubility (thermodynamic) in data set [1] of 912 µg/mL (≈ 1600 µM).
`COc1cc(Cl)cc(C(=O)Nc2ccc(Cl)cn2)c1NC(=O)c1ccc(-n2ccccc2=O)cc1` registered a CL in the data set with Canis familiaris [2] of 11.2 mL/min/kg. The same compound had a half-life in data set [3] of 0.7 h. This compound also showed a Vdss with Canis familiaris [4] of 0.62 L/kg. Besides, the bioavailability in data set [5] is 99%.
